Like-named read-outs stand apart in the source and are kept apart here.
Key:
SARS-CoV-2 = test: Cytopathic effect (CPE) suppression effect confirmation test using HEK293T/ACE2-TMPRSS2 cells; format: cell-based; settings: Severe acute respiratory syndrome coronavirus 2, HEK-293T
[1] = target: Recombinant SARS-CoV-2 3CL Protease (Severe acute respiratory syndrome coronavirus 2 (2019-nCoV) (SARS-CoV-2), UniProt P0DTD1); test: biochemical; format: biochemical; settings: 50% SARS-CoV-2 3CL protease inhibitory concentration; read-out: IC50
[2] = 50% SARS-CoV-2 infected cell death inhibitory concentration, HEK293T/ACE2-TMPRSS2 cells, read-out: EC50
[3] = 72 h, read-out: EC50 (50% SARS-CoV-2 infected cell death inhibitory concentration), HEK293T/ACE2-TMPRSS2 cells, CPE suppression, CellTiter-Glo 2.0 after 3 days culture
[4] = 72 h, read-out: EC50 (50% SARS-CoV-2 infected cell death inhibitory concentration), class, HEK293T/ACE2-TMPRSS2 cells, CPE suppression, CellTiter-Glo 2.0 after 3 days culture
[5] = 72 h, HEK293T/ACE2-TMPRSS2 cells, CPE suppression, CellTiter-Glo 2.0 after 3 days culture, read-out: EC50 (50% SARS-CoV-2 infected cell death inhibitory concentration), class

Row | Structure (SMILES) | EC50 (SARS-CoV-2; [2]) [nM] | IC50 [1] [nM] | EC50 (SARS-CoV-2; [3]) [nM] | EC50 (SARS-CoV-2; [4]) [nM] | EC50 (SARS-CoV-2; [5]) [nM]
1 | Cc1cncc(N2C(=O)N(CC#N)CC3(COc4ccc(Cl)cc43)C2=O)c1 (racemic) [Compound I-282] | < 100 | 2800 |  |  | 
2 | N#CCn1c(N2CC[C@@](O)(C(F)F)C2)c(-c2ccc(F)c(Cl)c2)c(=O)n(-c2cncc(Cl)c2)c1=O (single isomer, unassigned) [Compound I-238] |  | 0.97 | 4.62 |  | 
3 | N#CCn1c(N2CC[C@](O)(C(F)F)C2)c(-c2ccc(F)c(Cl)c2)c(=O)n(-c2cncc(Cl)c2)c1=O (single isomer, unassigned) [Compound I-239] |  | 0.63 | 3.15 |  | 
4 | N#CCn1c(N2CC[C@@](O)(c3ccccc3)C2)c(-c2ccc(F)c(Cl)c2)c(=O)n(-c2cncc(Cl)c2)c1=O (single isomer, unassigned) [Compound I-240] | < 100 | < 10 |  |  | 
5 | N#CCn1c(N2CC[C@](O)(c3ccccc3)C2)c(-c2ccc(F)c(Cl)c2)c(=O)n(-c2cncc(Cl)c2)c1=O (single isomer, unassigned) [Compound I-241] | < 100 | < 10 |  |  | 
6 | C[C@@H](C#N)n1c(N2CC3(CCOC3)C2)c(-c2ccc(F)c(Cl)c2)c(=O)n(-c2cncc(Cl)c2)c1=O (single isomer, unassigned) [Compound I-262] | < 100 | < 10 |  |  | 
7 | C[C@H](C#N)n1c(N2CC(C(C)(C)O)C2)c(-c2ccc(F)c(Cl)c2)c(=O)n(-c2cncc(Cl)c2)c1=O (single isomer, unassigned) [Compound I-288] | < 100 | < 10 |  |  | 
8 | C[C@@]1(O)CCN(c2c(-c3ccc(F)c(Cl)c3)c(=O)n(-c3cncc(Cl)c3)c(=O)n2CC#N)C1 (single isomer, unassigned) [Compound I-294] | < 100 | < 10 |  |  | 
9 | N#CCn1c(N2CC[C@@](O)(C3CC3)C2)c(-c2ccc(F)c(Cl)c2)c(=O)n(-c2cncc(Cl)c2)c1=O (single isomer, unassigned) [Compound I-356] | < 100 | < 10 |  |  | 
10 | C[C@@H](C#N)n1c(N2CCC(F)(F)CC2)c(-c2ccc(F)c(Cl)c2)c(=O)n(-c2cncc(Cl)c2)c1=O (single isomer, unassigned) [Compound I-386] | < 100 | < 10 |  |  | 
11 | C[C@](O)(CCc1c(-c2ccc(F)c(Cl)c2)c(=O)n(-c2cncc(Cl)c2)c(=O)n1CC#N)C(F)F (single isomer, unassigned) [Compound I-392] | < 100 | < 10 |  |  | 
12 | C[C@@](O)(CCc1c(-c2ccc(F)c(Cl)c2)c(=O)n(-c2cncc(Cl)c2)c(=O)n1CC#N)C(F)F (single isomer, unassigned) [Compound I-393] | < 100 | < 10 |  |  | 
13 | C[C@@H](C#N)n1c(N2CC[C@@](O)(C(F)F)C2)c(-c2ccc(F)c(F)c2)c(=O)n(-c2cncc(Cl)c2)c1=O (single isomer, unassigned) [Compound I-419] | < 100 | < 10 |  |  | 
14 | C[C@H](C#N)n1c(N2CC[C@@](O)(C(F)F)C2)c(-c2ccc(F)c(Cl)c2)c(=O)n(-c2cncc(Cl)c2)c1=O (single isomer, unassigned) [Compound I-423] | < 100 | < 10 |  |  | 
15 | C[C@@H](C#N)n1c(N2CC[C@@](O)(C(F)F)C2)c(-c2ccc(F)c(C#N)c2)c(=O)n(-c2cncc(Cl)c2)c1=O (single isomer, unassigned) [Compound I-427] | < 100 | < 10 |  |  | 
16 | C[C@@H](C#N)n1c(N2CC[C@@](O)(C(F)F)C2)c(-c2ccc(F)c(C(F)F)c2)c(=O)n(-c2cncc(Cl)c2)c1=O (single isomer, unassigned) [Compound I-428] | < 100 | < 10 |  |  | 
17 | C[C@](O)(CCc1c(-c2ccc(F)c(Cl)c2)c(=O)n(-c2cncc(C#N)c2)c(=O)n1CC#N)C(F)F (single isomer, unassigned) [Compound I-429] | < 100 | < 10 |  |  | 
18 | C[C@@](O)(CCc1c(-c2ccc(F)c(Cl)c2)c(=O)n(-c2cncc(C#N)c2)c(=O)n1CC#N)C(F)F (single isomer, unassigned) [Compound I-430] | < 100 | < 10 |  |  | 

Row | Structure (SMILES) | EC50 (SARS-CoV-2; [2]) [nM] | IC50 [1] [nM] | EC50 (SARS-CoV-2; [3]) [nM] | EC50 (SARS-CoV-2; [4]) [nM] | EC50 (SARS-CoV-2; [5]) [nM]
19 | C[C@@H](C#N)n1c(N2CC[C@](O)(C(F)F)C2)c(-c2ccc(F)c(Cl)c2)c(=O)n(-c2cncc(Cl)c2)c1=O (single isomer, unassigned) [Compound I-431] | < 100 | < 10 |  |  | 
20 | C[C@@H](C#N)n1c(N2CC[C@@](O)(C(F)F)C2)c(-c2ccc(F)c(C(F)F)c2)c(=O)n(-c2cncc(C#N)c2)c1=O (single isomer, unassigned) [Compound I-432] | < 100 | < 10 |  |  | 
21 | C[C@@H](C#N)n1c(N2CC[C@@](O)(C(F)F)C2)c(-c2ccc(F)c(Cl)c2)c(=O)n(-c2cncc(C#N)c2)c1=O (single isomer, unassigned) [Compound I-433] | < 100 | < 10 |  |  | 
22 | C[C@@H](C#N)n1c(N2CC[C@](O)(C(F)F)C2)c(-c2ccc(F)c(F)c2)c(=O)n(-c2cncc(Cl)c2)c1=O (single isomer, unassigned) [Compound I-434] | < 100 | < 10 |  |  | 
23 | CN1C[C@@H]2CN(c3c(Cc4cc(F)c(F)c(F)c4)c(=O)n(Cc4ncn(C)n4)c(=O)n3CC#N)C[C@@H]2C1 [Compound I-003] |  | > 100 |  | 1000 to 5000 | 
24 | Cn1cnc(Cn2c(=O)c(Cc3cc(F)c(F)c(F)c3)c(-c3cc4ccccc4s3)n(CC#N)c2=O)n1 [Compound I-005] |  | > 100 |  | 100 to 1000 | 
25 | Cn1cnc(Cn2c(=O)c(Cc3cc(F)c(F)c(F)c3)c(N3CCc4ccccc4C3)n(CC#N)c2=O)n1 [Compound I-006] |  | > 100 |  | 100 to 1000 | 
26 | N#CCn1c(N2CC3(CCOC3)C2)c(Cc2cc(F)c(F)c(F)c2)c(=O)n(-c2cncnc2)c1=O [Compound I-007] |  | > 100 |  | 100 to 1000 | 
27 | Cn1cnc(Cn2c(=O)c(Cc3cc(F)c(F)c(F)c3)c(N3Cc4ccccc4C3)n(CC#N)c2=O)n1 [Compound I-008] |  | > 100 |  | 100 to 1000 | 
28 | COc1ccc(Oc2c(-c3cccc4ccccc34)c(=O)n(-c3cncc(C)c3)c(=O)n2CC#N)cc1 [Compound I-009] |  | > 100 |  | 100 to 1000 | 
29 | Cc1cncc(-n2c(=O)c(Oc3cc(F)c(F)c(F)c3)c(Oc3cc(F)c(F)c(F)c3)n(CC#N)c2=O)c1 [Compound I-010] |  | > 100 |  | 1000 to 5000 | 
30 | Cc1cncc(-n2c(=O)c(C(=O)c3cc(F)c(F)c(F)c3)c(-c3cc4ccccc4s3)n(CC#N)c2=O)c1 [Compound I-011] |  | 10 to 100 |  |  | < 100
31 | Cc1cncc(-n2c(=O)c(Cc3cc(F)c(F)c(F)c3)c(-c3cccc(C#N)c3)n(CC#N)c2=O)c1 [Compound I-012] |  | 10 to 100 |  |  | < 100
32 | Cc1cncc(-n2c(=O)c(Oc3ccccc3)c(N3Cc4ccccc4C3)n(CC#N)c2=O)c1 [Compound I-014] |  | 5.1 | 17 |  | 
33 | Cc1cncc(-n2c(=O)c(-c3ccc(F)c(Cl)c3)c(Cl)n(CC#N)c2=O)c1 [Compound I-015] |  | < 10 |  | 100 to 1000 | 
34 | Cc1cncc(-n2c(=O)c(-c3cccc4ccccc34)c(N3Cc4cn[nH]c4C3)n(CC#N)c2=O)c1 [Compound I-016] |  | < 10 |  | < 100 | 
35 | Cc1cncc(-n2c(=O)c(-c3ccc(F)c(Cl)c3)c(-c3cnc4ccccc4c3)n(CC#N)c2=O)c1 [Compound I-017] |  | < 10 |  | < 100 | 
